± gives the standard deviation of the averaged measurements.
What was measured:
LENVATINIB = compound: COc1cc2nccc(Oc3ccc(NC(=O)NC4CC4)c(Cl)c3)c2cc1C(N)=O [LENVATINIB]; assay: surviving fraction relative to DMSO-only wells; higher = less growth inhibition; details: exposure time: 5 days
How it was run: (§1)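 Viability was determined by CellTiter-Glo luminescence, expressed as surviving fraction normalised to the median of DMSO-only wells. The cells were log-phase tumour cell lines seeded at 250–500 per well in 384-well plates and, after 24 hours, exposed continuously for five days to inhibitors at 0.5, 1, 5, 10, 50, 100, 500 and 1000 nM. Three screens per line were run, keeping only lines with replicate Pearson r >0.7 and median Z' >0.3.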

IMATINIB = compound: Cc1ccc(NC(=O)c2ccc(CN3CCN(C)CC3)cc2)cc1Nc1nccc(-c2cccnc2)n1 [IMATINIB]; assay: as above; details: exposure time: 5 days
How it was run: as §1

Test System | surviving fraction (LENVATINIB; 0.5 nM) | surviving fraction (LENVATINIB; 1 nM) | surviving fraction (LENVATINIB; 5 nM) | surviving fraction (LENVATINIB; 10 nM) | surviving fraction (LENVATINIB; 50 nM) | surviving fraction (LENVATINIB; 100 nM) | surviving fraction (LENVATINIB; 500 nM) | surviving fraction (LENVATINIB; 1000 nM) | surviving fraction (IMATINIB; 0.5 nM) | surviving fraction (IMATINIB; 1 nM) | surviving fraction (IMATINIB; 10 nM) | surviving fraction (IMATINIB; 50 nM) | surviving fraction (IMATINIB; 100 nM) | surviving fraction (IMATINIB; 500 nM) | surviving fraction (IMATINIB; 1000 nM) | surviving fraction (IMATINIB; 5 nM)
HSSYII SYNOVIAL | 0.933 ± 0.057 | 0.961 ± 0.028 | 0.952 ± 0.018 | 0.942 ± 0.06 | 0.842 ± 0.026 | 0.724 ± 0.024 | 0.38 ± 0.024 | 0.3 ± 0.017 | 1 ± 0.1 | 0.967 ± 0.026 | 1.04 ± 0.049 | 0.966 ± 0.021 | 0.998 ± 0.033 | 0.971 ± 0.063 | 0.948 ± 0.024 | 
HT1080 SOFT TISSUE | 1 ± 0.043 | 1.01 ± 0.051 | 1 ± 0.033 | 1.02 ± 0.032 | 1 ± 0.013 | 0.978 ± 0.021 | 1 ± 0.039 | 0.987 ± 0.026 | 1.045 ± 0.01 | 1.074 ± 0.0023 | 1.07 ± 0.021 | 1.04 ± 0.036 | 1.03 ± 0.033 |  |  | 1.1 ± 0.048
HU09 BONE | 0.925 ± 0.039 | 0.985 ± 0.079 | 0.97 ± 0.014 | 0.937 ± 0.13 | 0.649 ± 0.075 | 0.587 ± 0.021 | 0.33 ± 0.045 | 0.288 ± 0.034 | 1.05 ± 0.19 | 1.01 ± 0.034 |  | 0.878 ± 0.084 | 0.89 ± 0.0044 | 0.554 ± 0.027 | 0.483 ± 0.026 | 1.16 ± 0.038
HUO3N1 BONE | 1.05 ± 0.057 | 1.04 ± 0.058 | 1.03 ± 0.013 | 0.961 ± 0.053 | 0.967 ± 0.034 | 0.876 ± 0.018 | 0.764 ± 0.0072 | 0.676 ± 0.051 | 1.06 ± 0.039 | 0.9677 ± 0.0058 | 1.04 ± 0.027 |  |  | 0.892 ± 0.038 | 0.878 ± 0.062 | 1.072 ± 0.0071
JIMT1 BREAST | 0.987 ± 0.026 | 1.03 ± 0.0053 | 1.03 ± 0.026 | 1.03 ± 0.052 | 1.06 ± 0.068 | 1.04 ± 0.011 | 1 ± 0.015 | 1.08 ± 0.011 | 1.04 ± 0.047 | 1 ± 0.051 | 0.99 ± 0.028 |  | 1.08 ± 0.039 | 1.03 ± 0.056 | 1.03 ± 0.045 | 1.03 ± 0.029
JURKAT HAEMATOPOIETIC AND LYMPHOID TISSUE | 1.06 ± 0.011 | 1.08 ± 0.024 | 1.03 ± 0.035 | 1.02 ± 0.041 | 1 ± 0.039 | 1.02 ± 0.038 | 1.013 ± 0.009 | 0.964 ± 0.032 | 1.05 ± 0.031 | 1.07 ± 0.031 |  | 0.994 ± 0.032 | 1.02 ± 0.038 | 1.03 ± 0.039 | 1.04 ± 0.041 | 0.986 ± 0.034
